IC50 data for 2 compounds are collected here from ChEMBL document CHEMBL1201862, “PubChem BioAssay data set” (2004).

Activity calls are given as the source filed them. Cut-off read from the data, not from the text of the source: actives have a measured IC50 and inactives only a lower limit.

The target of this assay is Envelope glycoprotein gp160 (Human immunodeficiency virus 1, UniProt Q6QLK5). Put plainly: inhibitors of HIV fusion peptide binding, primary screen, biochemical, uHTS, fluorescence dequenching (AID 1986).
Chain of Envelope glycoprotein gp160 (Q6QLK5 whole entry, the tested form may be a part): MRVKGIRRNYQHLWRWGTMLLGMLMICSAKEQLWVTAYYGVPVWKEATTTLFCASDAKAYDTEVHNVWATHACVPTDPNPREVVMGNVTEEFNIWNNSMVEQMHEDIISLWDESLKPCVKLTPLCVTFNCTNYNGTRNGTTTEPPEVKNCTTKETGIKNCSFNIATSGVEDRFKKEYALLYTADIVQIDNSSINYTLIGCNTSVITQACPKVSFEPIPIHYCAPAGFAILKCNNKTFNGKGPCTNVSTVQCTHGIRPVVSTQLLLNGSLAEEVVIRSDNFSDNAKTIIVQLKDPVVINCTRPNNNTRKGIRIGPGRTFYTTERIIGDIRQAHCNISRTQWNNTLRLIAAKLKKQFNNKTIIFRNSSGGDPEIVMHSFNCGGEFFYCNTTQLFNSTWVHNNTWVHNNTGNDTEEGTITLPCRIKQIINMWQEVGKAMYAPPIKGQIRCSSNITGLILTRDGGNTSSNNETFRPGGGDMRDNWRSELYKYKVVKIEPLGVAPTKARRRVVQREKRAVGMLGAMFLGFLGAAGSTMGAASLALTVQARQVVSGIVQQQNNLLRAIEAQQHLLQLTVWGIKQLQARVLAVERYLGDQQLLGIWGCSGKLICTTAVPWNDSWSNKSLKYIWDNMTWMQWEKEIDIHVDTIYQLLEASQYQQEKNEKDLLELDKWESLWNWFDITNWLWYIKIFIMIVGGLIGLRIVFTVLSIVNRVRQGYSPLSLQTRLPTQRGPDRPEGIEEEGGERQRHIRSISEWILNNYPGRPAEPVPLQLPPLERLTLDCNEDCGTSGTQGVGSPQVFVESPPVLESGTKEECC

For `COc1cccc(-c2coc3c(C)c4oc(=O)c(CCC(=O)O)c(C)c4cc23)c1`, the half-maximal inhibitory concentration (IC50) (as a rule, the concentration that gives 50% inhibition) is 22.7 µM (active). The result for `COc1cc(NS(=O)(=O)c2ccc(Nc3nc(-c4ccccc4)cs3)cc2)nc(OC)n1` reads 20.4 µM (active).
